The compounds below were run on firefly luciferase activity (assay: Dual-Glo firefly/renilla luciferase reporter assay in cells). Details: 24 h, read-out: Firefly Luciferase IC50 (μM).
Assay type: cell-based

Row | SMILES | IC50
1 | COc1ccc(Nc2ccccc2-c2nnn(CCO)n2)cc1 [Compound 12, 2-[5-[2-(4-methoxyanilino)phenyl]tetrazol-2-yl]ethanol] | 0.1 to 1 µM
2 | CCc1ccc(Nc2ccccc2-c2nnn(CCO)n2)cc1 [Compound 9, 2-[5-[2-(4-ethylanilino)phenyl]tetrazol-2-yl]ethanol] | 0.1 to 1 µM
3 | OCCn1nnc(-c2ccccc2Nc2ccc(Br)cc2)n1 [Compound 207, 2-(5-(2-((4-bromophenyl)amino)phenyl)-2H-tetrazol-2-yl)ethan-1-01] | 0.1 to 1 µM
4 | Cc1ccc(-c2nnn(CCO)n2)c(Nc2ccc(C(F)(F)F)cc2)c1 [Compound 243, 2-(5-(4-methyl-2-((4-(trifluoromethyl)phenyl)amino)phenyl)-2H-tetrazol-2-yl)ethanol] | < 0.1 µM
5 | FC(F)OCCn1nnc(-c2ccccc2Nc2ccc(C(F)(F)F)cc2)n1 [Compound 183, 2-(2-(2-(difluoromethoxy)ethyl)-2H-tetrazol-5-yl)-N-(4-(trifluoromethyl)phenyl)aniline] | 0.1 to 1 µM

Same assay, conditions: 24 hrs compound treatment, starting from 3 uM, 1:3 dilution, 10 points; read-out: Firefly Luciferase IC50

Row | SMILES | IC50
6 | CC(=O)N1CCC(O)(Cn2nnc(-c3ccccc3Nc3ccc(C(F)(F)F)cc3)n2)C1 (stereo not shown) [Compound 154, 1-(3-hydroxy-3-((5-(2-((4-(trifluoromethyl)phenyl)amino)phenyl)-2H-tetrazol-2-yl)methyl)pyrrolidin-1-yl)ethanone] | 0.1 to 1 µM
7 | OC(Cn1nnc(-c2ccccc2Nc2ccc(C(F)(F)F)cc2)n1)C1CC1 (stereo not shown) [Compound 127, 1-cyclopropyl-2-[5-[2-[4-(trifluoromethyl)anilino]phenyl]tetrazol-2-yl]ethanol] | < 0.1 µM
8 | OC1(Cn2nnc(-c3ccccc3Nc3ccc(C(F)(F)F)cc3)n2)CCOC1 (stereo not shown) [Compound 151, 3-[[5-[2-[4-(trifluoromethyl)anilino]phenyl]tetrazol-2-yl]methyl]tetrahydro furan-3-ol] | < 0.1 µM
9 | O=C1NCC(Cn2nnc(-c3ccccc3Nc3ccc(C(F)(F)F)cc3)n2)N1 (stereo not shown) [Compound 167, 4-((5-(2-((4-(trifluoromethyl)phenyl)amino)phenyl)-2H-tetrazol-2-yl)methyl)imidazolidin-2-one] | 0.1 to 1 µM
10 | OC1(Cn2nnc(-c3ccccc3Nc3ccc(C(F)(F)F)cc3)n2)CCCN(c2ccccc2)C1 (stereo not shown) [Compound 176] | 0.1 to 1 µM
11 | FC(F)(F)c1ccc(Nc2ccccc2-c2nnn(Cc3ccccn3)n2)cc1 [Compound 52, 2-[2-(2-pyridylmethyl)tetrazol-5-yl]-N-[4-(trifluoromethyl)phenyl]aniline] | 0.1 to 1 µM
12 | Cn1nnc(-c2ccccc2Nc2ccc(C(F)(F)F)cc2)n1 [Compound 171, 2-(2-methyltetrazol-5-yl)-N-[4-(trifluoromethyl)phenyl]aniline] | 0.1 to 1 µM
13 | NS(=O)(=O)NCCn1nnc(-c2ccccc2Nc2ccc(C(F)(F)F)cc2)n1 [Compound 99, 2-[2-(sulfamoylamino)ethyl]-5-[2-[4-(trifluoromethyl)anilino]phenyl]tetrazole] | 1 to 5 µM
14 | OC1(Cn2nnc(-c3ccccc3Nc3ccc(C(F)(F)F)cc3)n2)CCNCC1 [Compound 135, 4-[[5-[2-[4-(trifluoromethyl)anilino]phenyl]tetrazol-2-yl]methyl]piperidin-4-ol] | 1 to 5 µM
15 | CC(C)C(=O)Cn1nnc(-c2ccccc2Nc2ccc(C(F)(F)F)cc2)n1 [Compound 128, 3-methyl-1-[5-[2-[4-(trifluoromethyl)anilino]phenyl]tetrazol-2-yl]butan-2-one] | 0.1 to 1 µM
16 | CCOC(=O)Cn1cc(-c2ccccc2Nc2ccc(C(F)(F)F)cc2)c(C)n1 [Compound 76, ethyl 2-[3-methyl-4-[2-[4-(trifluoromethyl)anilino]phenyl]pyrazol-1-yl]acetate] | 0.1 to 1 µM
17 | NS(=O)(=O)Cn1nnc(-c2ccccc2Nc2ccc(C(F)(F)F)cc2)n1 [Compound 101, (5-(2-((4-(trifluoromethyl)phenyl)amino)phenyl)-2H-tetrazol-2-yl)methane sulfonamide] | 0.1 to 1 µM
18 | CCC(O)Cn1nnc(-c2ccccc2Nc2ccc(C(F)(F)F)cc2)n1 (stereo not shown) [Compound 139, 1-(5-(2-((4-(trifluoromethyl)phenyl)amino)phenyl)-2H-tetrazol-2-yl)butan-2-ol] | < 0.1 µM
19 | FC(F)(F)c1ccc(Nc2ccccc2-c2nnn(CC3CCC3)n2)cc1 [Compound 170, 2-(2-(Cyclobutylmethyl)-2H-tetrazol-5-yl)-N-(4-(trifluoromethyl)phenyl)aniline] | 0.1 to 1 µM
20 | OCCn1nnc(-c2ccccc2Nc2ccc(C(F)(F)F)cc2)n1 [Compound 23, 2-(5-(2-((4-(Trifluoromethyl)phenyl)amino)phenyl)-2H-tetrazol-2-yl)ethanol] | < 0.1 µM

Now from value to compound:

Row | IC50 | SMILES
21 | 0.1 to 1 µM | OCCn1nnc(-c2ccccc2Nc2ccc(SC(F)(F)F)cc2)n1 [Compound 248, 2-(5-(2-((4-((trifluoromethyl)thio)phenyl)amino)phenyl)-2H-tetrazol-2-yl)ethanol]
22 | < 0.1 µM | CC(CN)n1nnc(-c2ccccc2Nc2ccc(C(F)(F)F)cc2)n1 (stereo not shown) [Compound 218, 2-(2-(1-aminopropan-2-yl)-2H-tetrazol-5-yl)-N-(4-(trifluoromethyl)phenyl) Aniline]
23 | < 0.1 µM | OC1(Cn2nnc(-c3ccccc3Nc3ccc(C(F)(F)F)cc3)n2)CC1 [Compound 204, 1-((5-(2-((4-(trifluoromethyl)phenyl)amino)phenyl)-2H-tetrazol-2-yl)methyl) cyclopropan-1-ol]
24 | 0.1 to 1 µM | CNCCn1nnc(-c2ccccc2Nc2ccc(C(F)(F)F)cc2)n1 [Compound 219, 2-(2-(2-(methylamino)ethyl)-2H-tetrazol-5-yl)-N-(4-(trifluoromethyl)phenyl) Aniline]
25 | < 0.1 µM | OC1(Cn2nnc(-c3ccccc3Nc3ccc(C(F)(F)F)cc3)n2)COC1 [Compound 186, 3-((5-(2-((4-(trifluoromethyl)phenyl)amino)phenyl)-2H-tetrazol-2-yl)methyl) oxetan-3-ol]
26 | 0.1 to 1 µM | O=C1NC(Cn2nnc(-c3ccccc3Nc3ccc(C(F)(F)F)cc3)n2)CO1 (stereo not shown) [Compound 180, 4-((5-(2-((4-(trifluoromethyl)phenyl)amino)phenyl)-2H-tetrazol-2-yl)methyl)oxazolidin-2-one]
27 | < 0.1 µM | C[C@@H](O)[C@H](C)n1nnc(-c2ccccc2Nc2ccc(C(F)(F)F)cc2)n1 [Compound 194, (2R,3S)-3-(5-(2-((4-(trifluoromethyl)phenyl)amino)phenyl)-2H-tetrazol-2-yl)butan-2-ol]
28 | < 0.1 µM | C[C@H]([C@@H](C)O)n1nnc(-c2ccccc2Nc2ccc(C(F)(F)F)cc2)n1 [Compound 193, (2R,3R)-3-(5-(2-((4-(trifluoromethyl)phenyl)amino)phenyl)-2H-tetrazol-2-yl)butan-2-ol]
29 | < 0.1 µM | O[C@H]1CCC[C@H]1n1nnc(-c2ccccc2Nc2ccc(C(F)(F)F)cc2)n1 [Compound 201, (1S,2R)-2-(5-(2-((4-(trifluoromethyl)phenyl)amino)phenyl)-2H-tetrazol-2-yl)cyclopentan-1-ol]
30 | 0.1 to 1 µM | CCOC(=O)Cn1cnc(-c2ccccc2Nc2ccc(C(F)(F)F)cc2)c1 [Compound 202, ethyl 2-(4-(2-((4-(trifluoromethyl)phenyl)amino)phenyl)-1H-imidazol-1-yl)acetate]
31 | < 0.1 µM | C[C@H](O)[C@@H](C)n1nnc(-c2ccccc2Nc2ccc(C(F)(F)F)cc2)n1 [Compound 195, (2S,3R)-3-(5-(2-((4-(trifluoromethyl)phenyl)amino)phenyl)-2H-tetrazol-2-yl)butan-2-ol]

— US11186554B2, “Non-fused tricyclic compounds” (VIVACE THERAPEUTICS, INC., priority 2017, dated 2021)
